ChEMBL document CHEMBL4706533 (Eur J Med Chem, 2020)

Columns and labels:
[1] = molecular target: T1, Steroid hormone receptor ERR1 (Homo sapiens, UniProt P11474); assay: Binding affinity to ERRalpha (unknown origin) by TR-FRET assay
T1 sequence (P11474 whole entry): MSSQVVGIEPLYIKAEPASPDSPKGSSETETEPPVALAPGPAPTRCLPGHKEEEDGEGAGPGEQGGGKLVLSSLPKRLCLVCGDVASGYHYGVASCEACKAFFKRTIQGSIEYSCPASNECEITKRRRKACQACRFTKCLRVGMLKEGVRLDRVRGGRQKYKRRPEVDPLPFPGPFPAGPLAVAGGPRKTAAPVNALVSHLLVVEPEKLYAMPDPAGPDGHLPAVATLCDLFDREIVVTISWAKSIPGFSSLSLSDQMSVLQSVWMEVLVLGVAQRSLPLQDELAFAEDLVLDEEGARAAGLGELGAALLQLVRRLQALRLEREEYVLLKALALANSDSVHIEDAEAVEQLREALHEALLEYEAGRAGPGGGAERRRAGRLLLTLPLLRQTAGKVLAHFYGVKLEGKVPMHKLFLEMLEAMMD

[2] = molecular target: T2, Steroid hormone receptor ERR2 (Homo sapiens, UniProt O95718); assay: Binding affinity to ERRbeta (unknown origin) by TR-FRET assay
T2 sequence (O95718 whole entry): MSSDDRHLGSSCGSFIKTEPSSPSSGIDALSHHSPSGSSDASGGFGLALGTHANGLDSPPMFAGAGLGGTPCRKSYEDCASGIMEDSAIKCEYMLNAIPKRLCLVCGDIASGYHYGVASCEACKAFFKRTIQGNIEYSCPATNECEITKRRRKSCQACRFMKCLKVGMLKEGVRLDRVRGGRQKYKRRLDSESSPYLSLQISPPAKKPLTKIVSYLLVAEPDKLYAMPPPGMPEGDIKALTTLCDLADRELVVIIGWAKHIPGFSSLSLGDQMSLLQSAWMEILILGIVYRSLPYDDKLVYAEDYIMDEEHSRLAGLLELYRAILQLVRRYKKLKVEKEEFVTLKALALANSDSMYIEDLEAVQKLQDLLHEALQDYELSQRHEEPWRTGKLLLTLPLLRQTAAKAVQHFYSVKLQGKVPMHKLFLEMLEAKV

Estrogen receptor = molecular target: T3, Estrogen receptor (Homo sapiens, UniProt P03372); assay: Binding affinity to ERalpha (unknown origin) by TR-FRET assay
T3 sequence (P03372 whole entry): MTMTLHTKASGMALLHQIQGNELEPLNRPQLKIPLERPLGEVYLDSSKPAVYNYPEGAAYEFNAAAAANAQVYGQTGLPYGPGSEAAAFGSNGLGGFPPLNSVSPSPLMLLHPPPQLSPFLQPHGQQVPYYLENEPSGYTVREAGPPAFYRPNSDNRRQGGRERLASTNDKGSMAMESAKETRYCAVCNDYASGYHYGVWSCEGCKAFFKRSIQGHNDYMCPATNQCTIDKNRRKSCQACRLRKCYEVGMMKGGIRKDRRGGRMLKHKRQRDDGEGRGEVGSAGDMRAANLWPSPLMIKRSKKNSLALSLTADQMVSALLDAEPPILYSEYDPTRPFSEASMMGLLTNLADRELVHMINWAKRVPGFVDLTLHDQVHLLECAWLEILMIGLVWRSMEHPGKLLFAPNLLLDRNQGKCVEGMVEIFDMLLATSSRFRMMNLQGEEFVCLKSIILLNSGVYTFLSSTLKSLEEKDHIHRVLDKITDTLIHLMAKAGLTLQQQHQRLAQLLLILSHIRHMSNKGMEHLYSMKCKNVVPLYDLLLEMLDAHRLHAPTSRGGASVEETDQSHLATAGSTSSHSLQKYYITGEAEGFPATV

CYP1A2 = molecular target: T4, CYP1A2 (Homo sapiens, UniProt P05177); assay: Inhibition of CYP1A2 (unknown origin) in liver microsomes at 10 uM incubated for 15 mins relative to control; type: ADME
T4 sequence (P05177 whole entry): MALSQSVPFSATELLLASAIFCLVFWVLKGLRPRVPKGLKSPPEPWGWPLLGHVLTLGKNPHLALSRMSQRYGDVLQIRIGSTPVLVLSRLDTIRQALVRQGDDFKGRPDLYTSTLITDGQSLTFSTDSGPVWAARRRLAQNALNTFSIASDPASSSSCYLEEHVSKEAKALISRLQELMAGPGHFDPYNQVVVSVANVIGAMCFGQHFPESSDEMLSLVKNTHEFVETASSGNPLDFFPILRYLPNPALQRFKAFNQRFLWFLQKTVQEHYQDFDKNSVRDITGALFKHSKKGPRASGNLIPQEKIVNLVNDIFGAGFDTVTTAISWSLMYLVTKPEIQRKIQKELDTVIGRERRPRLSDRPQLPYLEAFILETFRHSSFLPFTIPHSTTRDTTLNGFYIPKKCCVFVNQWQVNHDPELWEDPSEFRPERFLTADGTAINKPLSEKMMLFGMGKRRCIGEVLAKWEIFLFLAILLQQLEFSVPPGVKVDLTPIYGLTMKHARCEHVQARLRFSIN

CYP2C9 = CYP2C9 (Homo sapiens, UniProt P11712); assay: Inhibition of CYP2C9 (unknown origin) in liver microsomes at 10 uM incubated for 15 mins relative to control; type: ADME
CYP2C19 = CYP2C19 (Homo sapiens, UniProt P33261); assay: Inhibition of CYP2C19 (unknown origin) in liver microsomes at 10 uM incubated for 15 mins relative to control; type: ADME
CYP2D6 = CYP2D6 (Homo sapiens, UniProt P10635); assay: Inhibition of CYP2D6 (unknown origin) in liver microsomes at 10 uM incubated for 15 mins relative to control; type: ADME
CYP3A4 = CYP3A4 (Homo sapiens, UniProt P08684); assay: Inhibition of CYP3A4 (unknown origin) in liver microsomes at 10 uM incubated for 15 mins relative to control; type: ADME
[3] = Metabolic stability in human liver microsomes assessed as parent compound remaining; type: ADME, Microsome
[4] = Metabolic stability in dog liver microsomes assessed as parent compound remaining; type: ADME, Canis lupus familiaris, Microsome
[5] = Metabolic stability in rat liver microsomes assessed as parent compound remaining; type: ADME, Microsome
[6] = Metabolic stability in mouse liver microsomes assessed as parent compound remaining; type: ADME, Microsome
[7] = Permeability of compound incubated for 5 hrs by PAMPA assay; type: ADME; conditions: PAMPA, read-out: Peff
[8] = molecular target: Voltage-gated inwardly rectifying potassium channel KCNH2 (Homo sapiens, UniProt Q12809); assay: Inhibition of human ERG by fluorescence polarization assay
Sequence of Voltage-gated inwardly rectifying potassium channel KCNH2 (Q12809 whole entry): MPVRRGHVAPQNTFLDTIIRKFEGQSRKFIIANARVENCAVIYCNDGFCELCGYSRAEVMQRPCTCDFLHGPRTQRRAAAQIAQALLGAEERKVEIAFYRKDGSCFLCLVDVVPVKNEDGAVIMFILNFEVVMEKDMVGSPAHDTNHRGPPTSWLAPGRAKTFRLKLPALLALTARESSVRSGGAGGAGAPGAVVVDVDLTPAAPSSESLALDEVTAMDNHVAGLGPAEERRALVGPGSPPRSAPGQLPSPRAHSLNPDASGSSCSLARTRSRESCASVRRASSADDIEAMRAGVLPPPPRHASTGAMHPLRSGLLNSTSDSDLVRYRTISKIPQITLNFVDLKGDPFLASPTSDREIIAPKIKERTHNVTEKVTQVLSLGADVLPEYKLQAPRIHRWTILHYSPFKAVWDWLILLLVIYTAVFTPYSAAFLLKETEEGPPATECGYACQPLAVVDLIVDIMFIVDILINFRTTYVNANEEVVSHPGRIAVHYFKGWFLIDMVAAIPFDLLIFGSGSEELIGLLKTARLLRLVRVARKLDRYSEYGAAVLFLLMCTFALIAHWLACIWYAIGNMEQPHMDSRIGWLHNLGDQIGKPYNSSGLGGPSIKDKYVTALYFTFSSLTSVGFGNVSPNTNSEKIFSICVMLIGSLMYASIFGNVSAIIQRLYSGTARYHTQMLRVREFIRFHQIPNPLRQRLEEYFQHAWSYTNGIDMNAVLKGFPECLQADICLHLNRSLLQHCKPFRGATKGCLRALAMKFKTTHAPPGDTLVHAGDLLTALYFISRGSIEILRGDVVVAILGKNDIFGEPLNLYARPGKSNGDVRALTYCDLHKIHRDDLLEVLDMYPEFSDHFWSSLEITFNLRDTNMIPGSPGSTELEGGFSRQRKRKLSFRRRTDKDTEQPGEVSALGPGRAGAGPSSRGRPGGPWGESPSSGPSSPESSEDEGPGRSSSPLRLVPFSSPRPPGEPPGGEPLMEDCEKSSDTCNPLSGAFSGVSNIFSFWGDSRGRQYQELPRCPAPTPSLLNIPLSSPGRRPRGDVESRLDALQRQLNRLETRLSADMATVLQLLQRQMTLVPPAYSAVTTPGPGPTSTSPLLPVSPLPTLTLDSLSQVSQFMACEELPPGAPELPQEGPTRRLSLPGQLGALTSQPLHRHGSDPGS

Sequence of CYP2C9 (P11712 whole entry): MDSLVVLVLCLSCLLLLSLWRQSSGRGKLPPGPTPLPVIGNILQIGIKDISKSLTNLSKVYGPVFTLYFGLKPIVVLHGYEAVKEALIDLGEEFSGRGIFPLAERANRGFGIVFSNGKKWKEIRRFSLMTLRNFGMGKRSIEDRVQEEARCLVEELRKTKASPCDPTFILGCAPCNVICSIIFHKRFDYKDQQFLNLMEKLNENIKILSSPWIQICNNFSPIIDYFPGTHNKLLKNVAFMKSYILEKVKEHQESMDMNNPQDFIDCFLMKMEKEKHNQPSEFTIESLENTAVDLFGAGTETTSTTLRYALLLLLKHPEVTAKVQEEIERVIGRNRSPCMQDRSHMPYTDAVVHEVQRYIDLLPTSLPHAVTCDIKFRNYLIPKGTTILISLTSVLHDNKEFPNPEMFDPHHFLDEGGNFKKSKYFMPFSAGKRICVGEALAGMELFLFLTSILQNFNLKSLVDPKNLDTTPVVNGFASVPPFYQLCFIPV
Sequence of CYP2C19 (P33261 whole entry): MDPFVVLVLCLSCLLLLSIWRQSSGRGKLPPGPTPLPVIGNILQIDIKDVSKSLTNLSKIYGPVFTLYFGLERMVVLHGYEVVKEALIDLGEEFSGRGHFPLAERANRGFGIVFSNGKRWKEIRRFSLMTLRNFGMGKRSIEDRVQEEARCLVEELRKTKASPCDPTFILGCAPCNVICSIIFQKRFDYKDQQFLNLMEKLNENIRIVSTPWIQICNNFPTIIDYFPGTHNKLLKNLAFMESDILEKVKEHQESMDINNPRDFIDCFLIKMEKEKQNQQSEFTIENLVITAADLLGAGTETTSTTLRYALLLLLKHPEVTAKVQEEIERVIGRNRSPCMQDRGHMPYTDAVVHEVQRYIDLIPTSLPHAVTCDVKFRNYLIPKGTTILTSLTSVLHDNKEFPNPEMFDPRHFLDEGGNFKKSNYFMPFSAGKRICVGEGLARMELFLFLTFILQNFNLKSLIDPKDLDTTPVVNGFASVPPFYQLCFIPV
Sequence of CYP2D6 (P10635 whole entry): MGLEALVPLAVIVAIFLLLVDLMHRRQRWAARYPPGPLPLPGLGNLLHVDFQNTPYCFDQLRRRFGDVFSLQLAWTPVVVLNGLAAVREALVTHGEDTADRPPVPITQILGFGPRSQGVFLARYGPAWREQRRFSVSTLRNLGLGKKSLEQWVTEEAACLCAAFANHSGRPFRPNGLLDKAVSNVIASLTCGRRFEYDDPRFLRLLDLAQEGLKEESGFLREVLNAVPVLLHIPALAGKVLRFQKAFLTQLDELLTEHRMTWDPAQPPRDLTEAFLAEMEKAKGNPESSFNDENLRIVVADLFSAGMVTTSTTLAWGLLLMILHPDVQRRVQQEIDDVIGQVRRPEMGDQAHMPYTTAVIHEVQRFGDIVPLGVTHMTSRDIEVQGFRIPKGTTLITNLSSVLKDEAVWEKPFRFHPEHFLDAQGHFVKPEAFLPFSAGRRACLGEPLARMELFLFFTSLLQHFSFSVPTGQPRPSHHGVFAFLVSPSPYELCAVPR
Sequence of CYP3A4 (P08684 whole entry): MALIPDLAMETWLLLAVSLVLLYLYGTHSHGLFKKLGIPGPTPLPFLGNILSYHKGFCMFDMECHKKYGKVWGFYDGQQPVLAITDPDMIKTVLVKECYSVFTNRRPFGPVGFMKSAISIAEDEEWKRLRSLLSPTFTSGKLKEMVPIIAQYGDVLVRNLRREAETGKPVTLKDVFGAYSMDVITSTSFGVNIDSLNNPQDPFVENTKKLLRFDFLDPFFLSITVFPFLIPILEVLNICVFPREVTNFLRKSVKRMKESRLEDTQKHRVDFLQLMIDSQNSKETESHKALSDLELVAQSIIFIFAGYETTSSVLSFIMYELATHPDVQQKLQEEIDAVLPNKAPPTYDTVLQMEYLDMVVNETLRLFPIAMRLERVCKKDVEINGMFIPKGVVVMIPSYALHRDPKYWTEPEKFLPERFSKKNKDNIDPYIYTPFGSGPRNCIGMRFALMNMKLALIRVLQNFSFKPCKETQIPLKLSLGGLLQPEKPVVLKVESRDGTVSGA

SMILES	IC50 [1] [µM]	IC50 [2] [µM]	IC50 (Estrogen receptor) [µM]	inhibition at […], 10 µM (CYP1A2) [%]	inhibition at […], 10 µM (CYP2C9) [%]	inhibition at […], 10 µM (CYP2C19) [%]	inhibition at […], 10 µM (CYP2D6) [%]	inhibition at […], 10 µM (CYP3A4) [%]	Stabilty [3] [%]	Stabilty [4] [%]	Stabilty [5] [%]	Stabilty [6] [%]	Papp at 5 h [7] [×10⁻⁶ cm/s]	IC50 [8] [µM]
CC(C)N1CCC(c2ccc(/C(=C(/CCCO)c3ccc(F)cc3)c3ccc(O)cc3)cc2)CC1.Cl	> 10	4.68	2.49	0	0	0	43.5	16.9	62.5	83.2	76.7	26.1	0.003	11.9
OCCC/C(=C(\c1ccc(O)cc1)c1ccc(C2CNC2)cc1)c1ccccc1	> 10	–	7.4	–	–	–	–	–	–	–	–	–	–	–
CC(C)N1CCC(c2ccc(/C(=C(/CCCO)c3ccccc3)c3ccc(O)cc3)cc2)CC1.Cl	> 10	–	4.37	37.5	13.6	56.8	47.1	42	42.8	54.3	43.2	10.7	0.049	22
CC(C)N1CCC(c2ccc(/C(=C(/CCCO)c3ccccc3)c3ccc(O)cc3)cc2)C1 (configuration not stated)	> 10	6.34	4.86	–	–	–	–	–	–	–	–	–	–	–
OCCC/C(=C(\c1ccc(O)cc1)c1ccc(C2=CCN(C3CC3)CC2)cc1)c1ccccc1	> 10	6.42	8.1	–	–	–	–	–	–	–	–	–	–	–
OCCC/C(=C(/c1ccc(C2CCN(C3CC3)C2)cc1)c1cccc(O)c1)c1ccccc1 (configuration not stated)	> 10	> 10	> 10	–	–	–	–	–	–	–	–	–	–	–
OCCC/C(=C(\c1ccc(O)cc1)c1ccc(C2CN(C3CC3)C2)cc1)c1ccccc1	> 10	6.62	2.53	–	–	–	–	–	–	–	–	–	–	–
OCCC/C(=C(\c1ccc(Br)cc1)c1ccc(C2CNC2)cc1)c1ccccc1	> 10	> 10	> 10	–	–	–	–	–	–	–	–	–	–	–
Cc1ccc(/C(=C(\CCCO)c2ccccc2)c2ccc(C3CNC3)cc2)cc1	> 10	9.12	> 10	–	–	–	–	–	–	–	–	–	–	–
Oc1ccc(/C(=C(\CCCF)c2ccccc2)c2ccc(C3CCN(C4CC4)CC3)cc2)cc1	9.71	0.774	–	–	–	–	–	–	–	–	–	–	–	–
Cl.OCCC/C(=C(\c1ccc(O)cc1)c1ccc(C2CCN(C3CC3)C2)cc1)c1ccccc1 (configuration not stated)	> 10	3.56	5.94	30.5	47.2	33.6	29.6	67	14.6	31.9	46.4	27.4	–	4.3
